US20230227427A1, “IL-17A MODULATORS” (SANOFI, priority 2010, published 2023)

Biological target: T1, human recombinant IL-17A (Homo sapiens, UniProt Q16552)
T1 construct: purchased R&D Systems 7955-IL/CF
T1 sequence (Q16552 24-155): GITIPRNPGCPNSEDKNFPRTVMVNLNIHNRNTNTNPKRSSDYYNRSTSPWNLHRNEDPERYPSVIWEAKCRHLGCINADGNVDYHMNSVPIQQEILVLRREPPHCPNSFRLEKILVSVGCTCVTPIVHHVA
Assay: IL-17A AlphaLISA assay (block binding of IL-17A to its receptor IL-17RA)
Conditions: compounds pre-incubated with the IL-17A for 30 min (indicated by * in Table A); read-out: AlphaLISA pIC50 (converted)
Method in brief: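 PBS with 0.05% Tween-20 and 0.1% BSA. IL-17A stock 7.5 nM, IL-17RA/Fc stock 5 nM; compound–cytokine pre-incubation 24 h at RT, or 30 min where marked, then 90 min with receptor. pIC50 from 4-parameter logistic AlphaLISA signal, normalised to DMSO and 6 μM reference inhibitor.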

CCn1nccc1C(=O)N[C@H](C(=O)Nc1ccc(-c2c(C)nnn2C)cn1)[C@H]1CC[C@H](C)CC1 [Example 159, N—((S)-2-((5-(1,4-dimethyl-1H-1,2,3-triazol-5-yl)pyridin-2-yl)amino)-1-((1r,4S)-4-methylcyclohexyl)-2-oxoethyl)-1-ethyl-1H-pyrazole-5-carboxamide]
IC50: 100 nM

Cc1nocc1C(=O)N[C@H](C(=O)Nc1ccc(-c2c(C)nnn2C)cn1)[C@H]1CC[C@H](C)CC1 [Example 160, N—((S)-2-((5-(1,4-dimethyl-1H-1,2,3-triazol-5-yl)pyridin-2-yl)amino)-1-((1r,4S)-4-methylcyclohexyl)-2-oxoethyl)-3-methylisoxazole-4-carboxamide]
IC50: 200 nM

Cc1nnn(C2CC2)c1-c1ccc(NC(=O)[C@@H](NC(=O)c2ccnn2C)C2CCCCCC2)nc1 [Example 161, (S)—N-(1-cycloheptyl-2-((5-(1-cyclopropyl-4-methyl-1H-1,2,3-triazol-5-yl)pyridin-2-yl)amino)-2-oxoethyl)-1-methyl-1H-pyrazole-5-carboxamide]
IC50: 200 nM

Cc1noc(C)c1-c1cnc(NC(=O)[C@@H](NC(=O)c2ccnn2C)C2CCCCCC2)c(F)c1 [Example 162, (S)—N-(1-cycloheptyl-2-((5-(3,5-dimethylisoxazol-4-yl)-3-fluoropyridin-2-yl)amino)-2-oxoethyl)-1-methyl-1H-pyrazole-5-carboxamide]
IC50: 200 nM

CCn1nccc1C(=O)N[C@H](C(=O)Nc1ncc(-c2c(C)noc2C)cc1F)C1CCCCCC1 [Example 163, (S)—N-(1-cycloheptyl-2-((5-(3,5-dimethylisoxazol-4-yl)-3-fluoropyridin-2-yl)amino)-2-oxoethyl)-1-ethyl-1H-pyrazole-5-carboxamide]
IC50: 63.1 nM

CCc1nocc1C(=O)N[C@H](C(=O)Nc1ncc(-c2c(C)noc2C)cc1F)C1CCCCCC1 [Example 164, (S)—N-(1-cycloheptyl-2-((5-(3,5-dimethylisoxazol-4-yl)-3-fluoropyridin-2-yl)amino)-2-oxoethyl)-3-ethylisoxazole-4-carboxamide]
IC50: 63.1 nM

Cc1cnn(C)c1-c1cnc(NC(=O)[C@@H](NC(=O)c2ccnn2C)C2CCCCCC2)nc1 [Example 165, (S)—N-(1-cycloheptyl-2-((5-(1,4-dimethyl-1H-pyrazol-5-yl)pyrimidin-2-yl)amino)-2-oxoethyl)-1-methyl-1H-pyrazole-5-carboxamide]
IC50: 631 nM

Cn1nccc1C(=O)N[C@H](C(=O)Nc1ccc(-c2c(O)cnn2C)cn1)C1CCCCCC1 [Example 166, (S)—N-(1-cycloheptyl-2-((5-(4-hydroxy-1-methyl-1H-pyrazol-5-yl)pyridin-2-yl)amino)-2-oxoethyl)-1-methyl-1H-pyrazole-5-carboxamide]
IC50: 631 nM

Cc1cnn(C)c1-c1ccc(NC(=O)[C@@H](NC(=O)c2cnnn2C)[C@H]2CC[C@H](C)CC2)nc1 [Example 167, N—((S)-2-((5-(1,4-dimethyl-1H-pyrazol-5-yl)pyridin-2-yl)amino)-1-((1r,4S)-4-methylcyclohexyl)-2-oxoethyl)-1-methyl-1H-1,2,3-triazole-5-carboxamide]
IC50: 316 nM

CCn1nncc1C(=O)N[C@H](C(=O)Nc1ccc(-c2c(C)cnn2C)cn1)[C@H]1CC[C@H](C)CC1 [Example 168, N—((S)-2-((5-(1,4-dimethyl-1H-pyrazol-5-yl)pyridin-2-yl)amino)-1-((1r,4S)-4-methylcyclohexyl)-2-oxoethyl)-1-ethyl-1H-1,2,3-triazole-5-carboxamide]
IC50: 158 nM

CCn1nccc1C(=O)N[C@H](C(=O)Nc1ccc(-c2c(C)noc2C)nc1)C1CCCCCC1 [Example 169, (S)—N-(1-cycloheptyl-2-((6-(3,5-dimethylisoxazol-4-yl)pyridin-3-yl)amino)-2-oxoethyl)-1-ethyl-1H-pyrazole-5-carboxamide]
IC50: 100 nM

Cc1nocc1C(=O)N[C@H](C(=O)Nc1ccc(-c2c(C)noc2C)nc1)C1CCCCCC1 [Example 170, (S)—N-(1-cycloheptyl-2-((6-(3,5-dimethylisoxazol-4-yl)pyridin-3-yl)amino)-2-oxoethyl)-3-methylisoxazole-4-carboxamide]
IC50: 158 nM
